Measurements: article PMC4167698, “Fatty Acid Esters of Phloridzin Induce Apoptosis of Human Liver Cancer Cells through Altered Gene Expression” (PLoS ONE, 2014)

Key:
[1] = system: HepG2 cells; assay: MTS cell proliferation assay, HepG2; assay type: cell-based, human; details: for EC50: MTS
Method: (§1) Cell viability was determined by using the MTS assay. In brief, HepG2 cells (5×10^3 cells/100 µL/well), MDA-MB-231 (5×10^3 cells/100 µL/well), THP-1 (25×10^3/100 µL/well), normal human and rat hepatocytes (1×10^4 cells/100 µL/well) were plated in triplicate, in a 96 well sterile flat bottom tissue culture plates. […] Thereby, cells were exposed to various concentrations (0.1, 1, 10, 25, 50, 75, 100 µM) of each treatment. Controls consist of cells with media containing DMSO (<0.5%), test blank wells contained the test compound in media with no cells and blank wells contained media with no cells. After additional 3, 6, 12, 18 or 24 h, 20 µL of the MTS reagent in combination with the electron coupling agent, phenazine methosulfate were added to the wells and cells were incubated in a humidified incubator for 3 h. Absorbance at 490 nm (OD490) was measured by using a Flurostar Optima microplate reader (BMG Labtech, Cary, NC, USA) to obtain the number of viable cells relative to the control population. Percentage of viability of the test compound treated cells are expressed as percentage compared to control (<0.5% DMSO). […] The selective index (SI) of the fatty acid esters of phloridzin is defined as the ratio of cytotoxicity (EC50 values) on normal HP-F cells to solid cancer HepG2, MDA-MB-231 cells (SI = EC50 on HP-F cells/EC50 on solid cancer cells). Samples with SI values greater than three were considered to have high selectivity towards cancer cells.

[2] = system: normal human hepatocytes (HP-F); assay: MTS cell viability assay, normal human hepatocytes; assay type: cell-based; details: 24 h
Method: as §1

[3] = system: THP-1 cells; assay: MTS cell proliferation assay, THP-1; assay type: cell-based, human; details: for EC50: MTS
Method: as §1

[4] = system: MDA-MB-231 cells; assay: MTS cell proliferation assay, MDA-MB-231; assay type: cell-based, human; details: for EC50: MTS
Method: as §1

[5] = system: HepG2 cells; assay: Human cancer drug targets RT2 profiler PCR array; assay type: cell-based
Method: Total RNA extraction was performed using Arum Total RNA minikit (Bio-Rad, Hercules, CA, USA). RNA concentration and purity was determined by measuring the absorbance using a NanoDrop (NanoDrop Technologies, Wilmington, DE, USA). RNA integrity was assessed by formaldehyde agarose gel electrophoresis. RNA (400 ng) was used to synthesize cDNA using RT^2 First Strand kit (SABiosciences, Frederick, MD, USA). RT^2 RNA QC PCR arrays (SABiosciences, Frederick, MD, USA) was used to assess the quality of cDNA samples before characterization with the human cancer drug targets RT^2 profiler PCR array (SABiosciences, Frederick, MD, USA). Gene expression profiles of 84 genes were investigated using the human cancer drug targets RT^2 profiler PCR array (PAHS-507ZD) on a Bio-Rad CFX Connect (Bio-Rad, Hercules, CA, USA) using RT^2 real-time SYBR green PCR master mix (SABiosciences, Frederick, MD, USA). […] Reproducibility was maintained by using three biological replicates from three individual experiments.

[6] = 84-gene array, vs vehicle control

SMILES: CCCCC/C=C\C/C=C\CCCCCCCC(=O)O [Linoleic acid, linoleic acid]
- EC50 ([1]; Homo sapiens, HepG2, 3 h): > 100 µM
- EC50 ([1]; Homo sapiens, HepG2, 6 h): > 100 µM
- EC50 ([1]; Homo sapiens, HepG2, 12 h): > 100 µM
- EC50 ([1]; Homo sapiens, HepG2, 18 h): > 100 µM
- EC50 ([1]; Homo sapiens, HepG2, 24 h): > 100 µM
- EC50 ([2]; Hepatocyte): > 100 µM
- EC50 ([3]; Homo sapiens, THP-1, 3 h): > 100 µM
- EC50 ([3]; Homo sapiens, THP-1, 6 h): > 100 µM
- EC50 ([3]; Homo sapiens, THP-1, 12 h): > 100 µM
- EC50 ([3]; Homo sapiens, THP-1, 18 h): > 100 µM
- EC50 ([3]; Homo sapiens, THP-1, 24 h): > 100 µM
- EC50 ([4]; Homo sapiens, MDA-MB-231, 3 h): > 100 µM
- EC50 ([4]; Homo sapiens, MDA-MB-231, 6 h): > 100 µM
- EC50 ([4]; Homo sapiens, MDA-MB-231, 12 h): > 100 µM
- EC50 ([4]; Homo sapiens, MDA-MB-231, 18 h): > 100 µM
- EC50 ([4]; Homo sapiens, MDA-MB-231, 24 h): > 100 µM

SMILES: CCCCCCCC/C=C\CCCCCCCC(=O)O [Oleic acid, oleic acid]
- EC50 ([1]; Homo sapiens, HepG2, 3 h): > 100 µM
- EC50 ([1]; Homo sapiens, HepG2, 6 h): > 100 µM
- EC50 ([1]; Homo sapiens, HepG2, 12 h): > 100 µM
- EC50 ([1]; Homo sapiens, HepG2, 18 h): > 100 µM
- EC50 ([1]; Homo sapiens, HepG2, 24 h): > 100 µM
- EC50 ([2]; Hepatocyte): > 100 µM
- EC50 ([3]; Homo sapiens, THP-1, 3 h): > 100 µM
- EC50 ([3]; Homo sapiens, THP-1, 6 h): > 100 µM
- EC50 ([3]; Homo sapiens, THP-1, 12 h): > 100 µM
- EC50 ([3]; Homo sapiens, THP-1, 18 h): > 100 µM
- EC50 ([3]; Homo sapiens, THP-1, 24 h): > 100 µM
- EC50 ([4]; Homo sapiens, MDA-MB-231, 3 h): > 100 µM
- EC50 ([4]; Homo sapiens, MDA-MB-231, 6 h): > 100 µM
- EC50 ([4]; Homo sapiens, MDA-MB-231, 12 h): > 100 µM
- EC50 ([4]; Homo sapiens, MDA-MB-231, 18 h): > 100 µM
- EC50 ([4]; Homo sapiens, MDA-MB-231, 24 h): > 100 µM

SMILES: CC/C=C\C/C=C\C/C=C\C/C=C\C/C=C\C/C=C\CCC(=O)OC[C@H]1O[C@@H](Oc2cc(O)cc(O)c2C(=O)CCc2ccc(O)cc2)[C@H](O)[C@@H](O)[C@@H]1O [Pz-DHA ester, DHA ester of Pz]
- SI (selective index) ([1]; EC50 of HP-F cells/EC50 on HepG2, 24 h): 11.2
- EC50 ([1]; HepG2, 3 h): 76.9 ± 5.8 µM
- EC50 ([1]; HepG2, 6 h): 64.4 ± 5.9 µM
- EC50 ([1]; HepG2, 12 h): 56.2 ± 4.9 µM
- EC50 ([1]; HepG2, 18 h): 54.2 ± 3.9 µM
- EC50 ([1]; HepG2, 24 h): 51.9 ± 3.8 µM
- EC50 [2]: > 100 µM
- SI (selective index) ([3]; EC50 of HP-F cells/EC50 on THP-1, 24 h): 21.3
- EC50 ([3]; THP-1, 3 h): 65.8 ± 5.2 µM
- EC50 ([3]; THP-1, 6 h): 49.5 ± 3.8 µM
- EC50 ([3]; THP-1, 12 h): 42.7 ± 3 µM
- EC50 ([3]; THP-1, 18 h): 35.8 ± 2.8 µM
- EC50 ([3]; THP-1, 24 h): 27.3 ± 1.2 µM
- number of genes down-regulated (more than two-fold) [5, 6]: 41 genes
- number of genes unaffected [5, 6]: 35 genes
- number of genes up-regulated (more than two-fold) [5, 6]: 8 genes
- Fold change of gene expression relative to control: BCL2 ([5]; Apoptosis gene, RT-PCR array): −2.8 fold
- Fold change of gene expression relative to control: AKT1 ([5]; RT-PCR array): −6.1 fold
- Fold change of gene expression relative to control: AKT2 ([5]; RT-PCR array): −2.8 fold
- Fold change of gene expression relative to control: AURKB ([5]; RT-PCR array): −2.0 fold
- Fold change of gene expression relative to control: CDK2 ([5]; RT-PCR array): −2.0 fold
- Fold change of gene expression relative to control: CDK9 ([5]; RT-PCR array): −2.1 fold
- Fold change of gene expression relative to control: EGFR ([5]; RT-PCR array): −8.9 fold
- Fold change of gene expression relative to control: ERBB2 ([5]; RT-PCR array): −5.7 fold
- Fold change of gene expression relative to control: ERBB3 ([5]; RT-PCR array): −6.1 fold
- Fold change of gene expression relative to control: FLT1 ([5]; RT-PCR array): 16.5 fold
- Fold change of gene expression relative to control: GRB2 ([5]; RT-PCR array): −8.6 fold
- Fold change of gene expression relative to control: HDAC1 ([5]; RT-PCR array): −2.6 fold
- Fold change of gene expression relative to control: HDAC4 ([5]; RT-PCR array): −4.1 fold
- Fold change of gene expression relative to control: HDAC6 ([5]; RT-PCR array): −5.4 fold
- Fold change of gene expression relative to control: HDAC7 ([5]; RT-PCR array): −6.0 fold
- Fold change of gene expression relative to control: HDAC11 ([5]; RT-PCR array): −20.1 fold
- Fold change of gene expression relative to control: IGF1R ([5]; RT-PCR array): −4.2 fold
- Fold change of gene expression relative to control: IGF2 ([5]; RT-PCR array): −2.3 fold
- Fold change of gene expression relative to control: IRF5 ([5]; RT-PCR array): −2.3 fold
- Fold change of gene expression relative to control: KDR ([5]; RT-PCR array): −2.8 fold
- Fold change of gene expression relative to control: KRAS ([5]; RT-PCR array): −4.0 fold
- Fold change of gene expression relative to control: MDM4 ([5]; RT-PCR array): −2.1 fold
- Fold change of gene expression relative to control: NF−κB ([5]; RT-PCR array): −4.3 fold
- Fold change of gene expression relative to control: PARP1 ([5]; RT-PCR array): −5.4 fold
- Fold change of gene expression relative to control: PDGFRA ([5]; RT-PCR array): −2.8 fold
- Fold change of gene expression relative to control: PDGFRB ([5]; RT-PCR array): −16.8 fold
- Fold change of gene expression relative to control: PIK3C2A ([5]; RT-PCR array): −2.2 fold
- Fold change of gene expression relative to control: PLK1 ([5]; RT-PCR array): −2.9 fold
- Fold change of gene expression relative to control: PRKCA ([5]; RT-PCR array): −8.1 fold
- Fold change of gene expression relative to control: PRKCD ([5]; RT-PCR array): −2.1 fold
- Fold change of gene expression relative to control: PRKCE ([5]; RT-PCR array): −5.6 fold
- Fold change of gene expression relative to control: TERT ([5]; RT-PCR array): −5.6 fold
- Fold change of gene expression relative to control: TOP2A ([5]; RT-PCR array): −2.7 fold
- Fold change of gene expression relative to control: TOP2B ([5]; RT-PCR array): −2.3 fold
- Fold change of gene expression relative to control: TP53 ([5]; RT-PCR array): −7.4 fold
- Fold change of gene expression relative to control: mTOR ([5]; RT-PCR array): −3.6 fold
- Fold change of gene expression relative to control: FLT1 ([5]; RT-PCR array, listed as Phloridzin-DHA): +16.5 fold
- SI (selective index) ([4]; EC50 of HP-F cells/EC50 on MDA-MB-231, 24 h): 10.5
- EC50 ([4]; MDA-MB-231, 3 h): 132 ± 9.9 µM
- EC50 ([4]; MDA-MB-231, 6 h): 83.7 ± 7.5 µM
- EC50 ([4]; MDA-MB-231, 12 h): 70.2 ± 6.1 µM
- EC50 ([4]; MDA-MB-231, 18 h): 62.6 ± 5.1 µM
- EC50 ([4]; MDA-MB-231, 24 h): 55.5 ± 4.5 µM

SMILES: CCCCCCCCCCCCCCCCCC(=O)O [Stearic acid, stearic acid]
- EC50 ([1]; Homo sapiens, HepG2, 3 h): > 100 µM
- EC50 ([1]; Homo sapiens, HepG2, 6 h): > 100 µM
- EC50 ([1]; Homo sapiens, HepG2, 12 h): > 100 µM
- EC50 ([1]; Homo sapiens, HepG2, 18 h): > 100 µM
- EC50 ([1]; Homo sapiens, HepG2, 24 h): > 100 µM
- EC50 ([2]; Hepatocyte): > 100 µM
- EC50 ([3]; Homo sapiens, THP-1, 3 h): > 100 µM
- EC50 ([3]; Homo sapiens, THP-1, 6 h): > 100 µM
- EC50 ([3]; Homo sapiens, THP-1, 12 h): > 100 µM
- EC50 ([3]; Homo sapiens, THP-1, 18 h): > 100 µM
- EC50 ([3]; Homo sapiens, THP-1, 24 h): > 100 µM
- EC50 ([4]; Homo sapiens, MDA-MB-231, 3 h): > 100 µM
- EC50 ([4]; Homo sapiens, MDA-MB-231, 6 h): > 100 µM
- EC50 ([4]; Homo sapiens, MDA-MB-231, 12 h): > 100 µM
- EC50 ([4]; Homo sapiens, MDA-MB-231, 18 h): > 100 µM
- EC50 ([4]; Homo sapiens, MDA-MB-231, 24 h): > 100 µM

SMILES: CC/C=C\C/C=C\C/C=C\CCCCCCCC(=O)O [α-Linolenic acid, α-linolenic acid]
- EC50 ([1]; HepG2, 3 h): > 100 µM
- EC50 ([1]; HepG2, 6 h): > 100 µM
- EC50 ([1]; HepG2, 12 h): > 100 µM
- EC50 ([1]; HepG2, 18 h): > 100 µM
- EC50 ([1]; HepG2, 24 h): > 100 µM
- EC50 [2]: > 100 µM
- EC50 ([3]; THP-1, 3 h): > 100 µM
- EC50 ([3]; THP-1, 6 h): > 100 µM
- EC50 ([3]; THP-1, 12 h): > 100 µM
- EC50 ([3]; THP-1, 18 h): > 100 µM
- EC50 ([3]; THP-1, 24 h): > 100 µM
- EC50 ([4]; MDA-MB-231, 3 h): > 100 µM
- EC50 ([4]; MDA-MB-231, 6 h): > 100 µM
- EC50 ([4]; MDA-MB-231, 12 h): > 100 µM
- EC50 ([4]; MDA-MB-231, 18 h): > 100 µM
- EC50 ([4]; MDA-MB-231, 24 h): > 100 µM
